Experimental data published in EP1203770A1 (priority 1992, dated 1994).
Where two headings read alike, the source gives them in different places.

Biological target: T1, HIV-1 protease (Human immunodeficiency virus type 1 group M subtype B, UniProt P04585)
T1 construct: The protease (or proteinase), consisting of only 99 amino acids, is among the smallest enzymes known
Test: In vitro HIV protease inhibitory assay (HIV Protease FITC Assay)
Format: biochemical
Conditions: for inhibition at 100 µM: HIV-1 Dose 100.000 uM; for inhibition at 1 µM: HIV-1 Dose 1.000 uM
Procedure, shortened: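 Biotin/FITC-labelled peptide substrate cleaved by HIV-1 protease for 1 h at room temperature in the dark, in 0.1 M sodium acetate pH 5.5, 1.0 M NaCl, 0.05% NP-40. Uncleaved substrate captured on avidin beads and separated by filtration; fluorescence gave % inhibition.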

[1] = HIV-1 Dose 0.123 uM, read-out: HIV-1 Protease % Inhib
[2] = HIV-1 Dose 0.370 uM, read-out: HIV-1 Protease % Inhib
[3] = HIV-1 Dose 1.100 uM, read-out: HIV-1 Protease % Inhib
[4] = HIV-1 Dose 3.300 uM, read-out: HIV-1 Protease % Inhib
[5] = HIV-1 Dose 10.000 uM, read-out: HIV-1 Protease % Inhib
[6] = HIV-1 Dose 30.000 uM, read-out: HIV-1 Protease % Inhib
[7] = read-out: HIV-1 Protease % Inhib

Structure (SMILES) | inhibition at 0.123 µM [1] | inhibition at 0.37 µM [2] | inhibition at 1.1 µM [3] | inhibition at 3.3 µM [4] | inhibition at 10 µM [5] | inhibition at 30 µM [6] | inhibition at 100 µM [7] | Ki (read-out: HIV-1 FITC Ki) | other results
Cc1ccc(C(O)Cc2cc(O)c(C(c3ccccc3)C3CC3)c(=O)o2)cc1 (stereo not drawn) [Example 147, 3-(α-cyclopropylbenzyl)-4-hydroxy-6-(β-hydroxy-p-methylphenethyl)-2H-pyran-2-one] | < 10% | < 10% | 28.9% | 52.6% | 78.1% | 89.2% | 114% |  | 
CCCC1(CCc2ccccc2)CC(O)=C(C(CCc2ccccc2)c2ccccc2)C(=O)O1 (stereo not shown) [Example 171, 3-(1,3-Diphenylpropyl)-5,6-dihydro-4-hydroxy-6-(2-phenylethyl)-6-propyl-, 2H-pyran-2-one] |  |  |  |  |  |  |  | 50 nM | inhibition at 0.123 µM [7]: 11.8%; inhibition at 0.37 µM [7]: 39.5%; inhibition at 1.1 µM [7]: 68.9%; inhibition at 3.3 µM [7]: 82.2%; inhibition at 10 µM [7]: 96.8%; inhibition at 30 µM [7]: 94.6%
CCC(Cc1ccccc1)c1cc(O)c(C(c2cccc(NC(=O)[C@H](Cc3cn(S(=O)(=O)c4ccc(C)cc4)cn3)NC(=O)OC(C)(C)C)c2)C2CC2)c(=O)o1 (stereo partly drawn) [Example 222, 3-(α-Cyclopropyl-meta-(N-α-tert-butyloxycarbonyl-N-im-p-toluenesulfonyl-L-histidylamino)benzyl)-6-(α-ethylphenethyl)-4-hydroxy-2H-pyran-2-one] | 19% | 51.7% | 75.8% | 91% | 98.3% | 95.8% |  | 18.5 nM | 
O=c1oc(CCc2ccccn2)cc(O)c1C(c1ccccc1)C1CC1 (stereo not shown) [Example 49, 3-(Cyclopropyl-phenyl-methyl)-4-hydroxy-6-(2-pyridin-2-yl-ethyl)-pyran-2-one] |  |  |  |  |  |  | 98.3% | 425 nM | inhibition at 0.41 µM (HIV-1 Dose 0.410 uM, read-out: HIV-1 Protease % Inhib): < 10%; inhibition at 1.23 µM (HIV-1 Dose 1.230 uM, read-out: HIV-1 Protease % Inhib): 24.6%; inhibition at 3.7 µM (HIV-1 Dose 3.700 uM, read-out: HIV-1 Protease % Inhib): 52.3%; inhibition at 11 µM (HIV-1 Dose 11.000 uM, read-out: HIV-1 Protease % Inhib): 80%; inhibition at 33 µM (HIV-1 Dose 33.000 uM, read-out: HIV-1 Protease % Inhib): 93.7%
CCCCC1(Cc2ccccc2)CC(O)=C(C(C=Cc2ccccc2)c2ccccc2)C(=O)O1 (stereo not shown) [Example 217, 2H-Pyran-2-one, 6-butyl-5,6-dihydro-3-(1,3-diphenyl-2-propenyl)-4-hydroxy-6-phenylmethyl-] | < 10% | < 10% | < 10% | 33.1% | 62.4% | 69.1% |  |  | 
CCC(CCC1OCCCO1)c1cc(O)c(C(c2ccccc2)C2CC2)c(=O)o1 (stereo not shown) [Example 65, 3-(Cyclopropyl-phenyl-methyl)-6-(3-(1,3)dioxan-2-yl-1-ethyl-propyl)-4-hydroxy-pyran-2-one] | < 10% | 28% | 71.2% | 93.2% | 107% | 122% |  | 141 nM | 
CCC(CC1CCN(S(=O)(=O)c2ccc(C)cc2)CC1)c1cc(O)c(C(c2ccccc2)C2CC2)c(=O)o1 (stereo not shown) [Example 141, 4-[2-[3-(Cyclopropylphenylmethyl)-4-hydroxy-2-oxo-2H-pyran-6-yl]butyl]-1-[(4-methylphenyl)sulfonyl]-piperidine] | < 10% | < 10% | < 10% | < 10% | 11.2% | 17% |  |  | 
CCC(c1ccccc1)c1c(O)cc(CCc2cccc3ccccc23)oc1=O (stereo not drawn) [Example 18, 3-(α-ethylbenzyl)-4-hydroxy-6-(2-naphth-1-ylethyl)-2H-Pyran-2-one] |  |  |  |  | 42.1% |  | 86.8% |  | inhibition at 1 µM [7]: < 10%
CC(c1cc(O)c(C(C2CC2)C2CC2)c(=O)o1)C1CC1 (stereo not shown) [Example 83, 6-(1-Cyclopropyl-ethyl)-3-dicyclopropylmethyl-4-hydroxy-pyran-2-one] |  |  |  |  | 72% |  | 93.5% |  | inhibition at 1 µM [7]: 10.5%
CCC(CC1COc2ccccc2O1)c1cc(O)c(C(c2ccccc2)C2CC2)c(=O)o1 (stereo not shown) [Example 74, 3-(Cyclopropyl-phenyl-methyl)-6-[1-(2,3-dihydro-benzo[1,4]dioxin-2-ylmethyl)-propyl]-4-hydroxy-pyran-2-one] | < 10% | 17.5% | 53.4% | 81.4% | 96.7% | 106% |  | 186 nM | 
CCCC1(CCc2ccccc2)CC(O)=C(C(CC)c2ccccc2)C(=O)O1 (stereo not shown) [Example 175, 5,6-Dihydro-4-hydroxy-6-(2-phenylethyl)-3-(1-phenylpropyl)-6-propyl-2H-pyran-2-one] |  |  |  |  |  |  |  |  | Ki: 35 nM; inhibition at 0.123 µM [7]: 19.7%; inhibition at 0.37 µM [7]: 46.7%; inhibition at 1.1 µM [7]: 78.8%; inhibition at 3.3 µM [7]: 99.3%; inhibition at 10 µM [7]: 107%; inhibition at 30 µM [7]: 105%
